Experimental data published in patent publication US8642259B2, “Method for identifying substances capable of modulating the activity of a target molecule” (Sanofi-Aventis Deutschland GmbH, priority 2002, dated 2014).

Key:
[1] = test system: human M1 muscarinic receptor, somatostatin receptor 2 and EDG5
Procedure: The human GPCRs cloned into vector p426GPD are transformed into the appropriate yeast strain and incubated on SC selection plates without uracil and with 2% glucose as carbon source (SC/Gluc-Ura) at 30° C. for 3 days. The single cell colonies thus obtained are then utilized in order to inoculate 2 ml overnight cultures in SC/Gluc-Ura. The next day, the cells are diluted 1:100 in SC/Gluc-Ura-His pH 6.8. In the case of yeast strains using the FUS1 promoter for reporter gene expression, 2-10 mM 3-aminotriazole (3-AT, Sigma) are additionally added to said medium. In each case 90 μl of the diluted cell suspension are pipetted into a well of a 96-well microtiter plate, which already contains 10 μl of the ligand to be studied. The plates are incubated with or without shaking at 30° C. for 5-24 h. This is followed by adding to each well 50 μl of assay mix. The assay mix consists of 150 μg/ml digitonin (Sigma), 300 μg/ml chlorophenol red β-D-galactopyranoside (CPRG, Roche), 300 mM sodium phosphate buffer pH 6.7. After incubation with or without shaking at 30° C. for 2 h, β-galactosidase activity is measured as absorption at 574 nm in a spectrophotometer (Spectramax Plus, Molecular Devices). The data are analyzed and dose-response curves are drawn using the Graphpad Prism 3.0 computer program. All measurements are averages from triplicate determinations. […]

[2] = molecular target: T1, human GPCR EDG5 (Homo sapiens, UniProt O95136); assay: Growth readout (FUS1-HIS3, turbidity at 630 nm), yeast strain YLJ21 expressing EDG5; assay type: cell-based; conditions: 2 mM 3-AT; 23 h at 30° C.; FIG. 3B left-hand graph
T1 construct: expressed in transfected cells; host or cells: Saccharomyces cerevisiae strain YLJ21 (endogenous Gpa1), episomal vector p426GPD
T1 sequence (O95136 whole entry): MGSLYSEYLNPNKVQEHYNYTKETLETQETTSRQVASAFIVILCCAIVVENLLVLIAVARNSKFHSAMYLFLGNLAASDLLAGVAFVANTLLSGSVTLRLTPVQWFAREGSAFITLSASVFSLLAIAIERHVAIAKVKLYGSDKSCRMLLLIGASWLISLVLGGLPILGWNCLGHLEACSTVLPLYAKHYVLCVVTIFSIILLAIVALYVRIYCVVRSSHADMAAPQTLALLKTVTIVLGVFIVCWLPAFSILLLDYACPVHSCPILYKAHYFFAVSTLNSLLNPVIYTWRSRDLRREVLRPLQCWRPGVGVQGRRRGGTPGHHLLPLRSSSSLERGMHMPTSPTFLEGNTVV
Procedure: (§1) The human GPCRs cloned into vector p426GPD are transformed into the appropriate yeast strain and incubated on SC selection plates without uracil and with 2% glucose as carbon source (SC/Gluc-Ura) at 30° C. for 3 days. The single cell colonies thus obtained are then utilized in order to inoculate 2 ml overnight cultures in SC/Gluc-Ura. The next day, the cells are diluted 1:100 in SC/Gluc-Ura-His pH 6.8. In the case of yeast strains using the FUS1 promoter for reporter gene expression, 2-10 mM 3-aminotriazole (3-AT, Sigma) are additionally added to said medium. In each case 90 μl of the diluted cell suspension are pipetted into a well of a 96-well microtiter plate, which already contains 10 μl of the ligand to be studied. The plates are incubated with or without shaking at 30° C. for 5-24 h. […] All measurements are averages from triplicate determinations. […] The transformed yeasts were then cultivated in 2 ml of SC/Gluc-Ura at 30° C. overnight. The next day, the cultures were diluted 1:100 in SC/Gluc-Ura-His pH 6.8 medium without (FIG. 3A) or with 2 mM 3-AT (FIG. 3B). […] The turbidity resulting from growth of the yeast cells was measured at 630 nm in the photometer (FIGS. 3A and B, in each case left-hand graph).

[3] = molecular target: human GPCR EDG1 (Homo sapiens, UniProt P21453); assay: Growth readout (FUS1-HIS3, turbidity at 630 nm), yeast strain YLJ21 expressing EDG1; assay type: cell-based; conditions: 2 mM 3-AT; 23 h at 30° C.; FIG. 3B left-hand graph
Sequence of human GPCR EDG1 (P21453 whole entry): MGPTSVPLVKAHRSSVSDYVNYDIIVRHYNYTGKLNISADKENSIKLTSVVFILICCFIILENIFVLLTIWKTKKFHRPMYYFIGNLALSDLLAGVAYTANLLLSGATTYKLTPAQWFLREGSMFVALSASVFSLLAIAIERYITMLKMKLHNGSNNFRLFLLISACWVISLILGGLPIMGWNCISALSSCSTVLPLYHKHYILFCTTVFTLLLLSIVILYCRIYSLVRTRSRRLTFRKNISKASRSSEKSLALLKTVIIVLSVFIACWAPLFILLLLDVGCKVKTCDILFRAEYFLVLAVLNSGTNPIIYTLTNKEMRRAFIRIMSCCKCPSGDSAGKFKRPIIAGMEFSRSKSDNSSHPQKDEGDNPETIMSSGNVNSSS
Procedure: as §1

CCCCCCCCCCCCC/C=C/[C@@H](O)[C@@H](N)COP(=O)(O)O [sphingosine 1-phosphate]
detection of the agonist in the receptor mixture [1]: can also be detected in the mixture | dose dependence of the measured signal (turbidity at 630 nm) [2]: level of the measured signal is dependent on the amount of sphingosine 1-phosphate | dose dependence of the measured signal (turbidity at 630 nm) [3]: level of the measured signal is dependent on the amount of sphingosine 1-phosphate

somatostatin-14
detection of the agonist in the receptor mixture [1]: can also be detected in the mixture
